Results taken from patent US20080306133A1, “INTRANASAL ADMINISTRATION OF ASENAPINE AND PHARMACEUTICAL COMPOSITIONS THEREFOR” (priority 2007, published 2008).
Structures can show the parent of a compound that is named as a salt.

Tests used:
[1] = oral dosage form; cited from earlier work
[2] = 10 mg/day (5 mg twice daily); randomised, double-blind, placebo-controlled trials; cited from earlier work
Solubility in water = type: physicochemical; details: pH of about 4.0 to about 5.0

SMILES | bioavailability [1] [%] | efficacy in the treatment of schizophrenia as assessed by the Positive and Negative Symptoms Scale (PANSS) [2] | solubility (Solubility in water) [µg/mL]
CN1C[C@@H]2c3ccccc3Oc3ccc(Cl)cc3[C@H]2C1 (relative stereo) [Asenapine, trans-5-chloro-2-methyl-2,3,3a,12b-tetrahydro-1H-dibenz[2,3:6,7]oxepino[4,5-c]pyrrole] | < 1 | effective | 
CN1CC2c3ccccc3Oc3ccc(Cl)cc3C2C1 (stereo not drawn) [Asenapine maleate] |  |  | ~10000
